Results taken from US10077243B2, “Compounds for treating disorders mediated by metabotropic glutamate receptor 5, and methods of use thereof” (Sunovion Pharmaceuticals Inc., priority 2009, dated 2018).
Where two headings read alike, the source gives them in different places.

Target: T1, human mGluR5 (Homo sapiens, UniProt P41594)
T1 construct: expressed in transfected cells; host or cells: HEK293 cells stably expressing rat GLAST (EAAT1), stably transfected with pcDNAzeo3.1 carrying synthetic human mGluR5 DNA; zeocin-selected single clones
Test: In vitro cell-based FLIPR calcium assay for positive modulation of the activation of mGluR5 by glutamate (PAM EC50)
Conditions: FLIPR calcium signal, glutamate added at its EC20
Source text: The DNA sequences encoding the structural regions for rat mGluR5 [Abe T, Sugihara H, Nawa H, Shigemoto R, Mizuno N, Nakanishi S (1992) “Molecular characterization of a novel metabotropic glutamate receptor mGluR5 coupled to inositol phosphate/Ca^2+ signal transduction” Journal of Biological Chemistry vol. 267, no. 19, pp. 13361-8] and human mGluR5 [Daggett L P, Sacaan A I, Akong M, Rao S P, Hess S D, Liaw C, Urrutia A, Jachec C, Ellis S B, Dreessen J, Knöpfel T, Landwehrmeyer G B, Testa C M, Young A B, Varney M, Johnson E C, Veliçelebi (1995) “Molecular and functional characterization of recombinant human metabotropic glutamate receptor subtype 5” Neuropharmacology vol. 34, no. […] 53, no. 3, pp. 355-369] was obtained from Dr. Michael Robinson of the Children's Hospital of Philadelphia under a Material Transfer Agreement. The pcDNAzeo3.1 vector DNA, carrying either rat mGluR5 or human mGluR5, was used to transfect a sample of the HEK293/GLAST cells, and single clones that express mGluR5 were isolated from the transfected cells using zeocin selection. Expression of mGluR5 was assessed by measurement of the transient fluorescence signal elicited from HEK293/GLAST/mGluR5 cells by glutamate following the loading of the cells with a calcium-sensitive dye using a FLIPR Tetra (Fluorometric Imaging Plate Reader) (Molecular Devices, Sunnyvale, Calif.) [O'Brien J A, Lemaire W, Chen T B, Chang R S, Jacobson M A, Ha S N, Lindsley C W, Schaffhauser H J, Sur C, Pettibone D J, Conn P J, Williams D L Jr. […] 64, no. 3, pp. 731-740; Assay Guidance Manual Version 5.0, 2008, Eli Lilly and Company and NIH Chemical Genomics Center; available online HEK293/GLAST/mGluR5 cells were grown in Dulbecco's Modified Eagle Medium (DMEM) supplemented with 10% dialyzed fetal bovine serum, 20 millimolar (mM) N-2-hydroxyethylpiperazine-N′-2-ethanesulfonic acid (HEPES), penicillin, streptomycin, 1% GlutaMax™ (Invitrogen) and 50 μg/ml zeocin. Cells were grown in the media to 70-80% confluency at 37° C. under 5% CO2, 95% humidity in poly-D-lysine coated coated flasks. Cells for assays were plated into 96-well sterile standard microtiter plates (pre-coated with poly-D-lysine) at a density of 50,000 cells per well in 0.2 milliliters of media. Plated cells were allowed to settle and adhere for 30 minutes at ambient conditions, and then were incubated overnight at 37° C. under 5% CO2, 95% humidity. Several such 96-well plates were typically prepared. On the day of the assays, the components of the FLIPR calcium 4 assay kit (Molecular Devices) were dissolved according to the instructions of the dye kit's manufacturer in assay buffer (Hank's balanced salt solution (HBSS) (Gibco) supplemented with 20 mM HEPES). After removal of the growth media from the first plate, cells were loaded with calcium dye by addition of calcium dye solution (50 microliters per well) and incubation at 25° C. for 45 to 60 minutes. The first plate was placed into the FLIPR Tetra, and a dilution series of glutamate solutions in assay buffer were added to wells on the plate, followed by acquisition of fluorescence data for several minutes. The fluorescence data (maximal signal as a 4-parameter sigmoidal function of log [glutamate]) were processed by non-linear regression methods using the software package GraphPad Prism 5.01 (GraphPad Software Inc.), to yield a glutamate concentration-response curve (CRC). […] These values were, respectively, the concentrations of glutamate that elicit 20%, 50%, and 80% of the maximal FLIPR signal (observed at saturating [glutamate]). The method for measuring the concentration response of a potentiator, or positive allosteric modulator (PAM), is described here as an example. For that purpose, subsequent assays were typically performed using assay buffer containing a glutamate concentration equal to that day's EC20. […] Addition to certain wells of the same buffer containing 0.3% DMSO, but without any test compound, provided a negative control.

[1] = HEK293/GLAST cells expressing recombinant human mGluR5, read-out: mGluR5 PAM EC50

T1 sequence (P41594 21-1212): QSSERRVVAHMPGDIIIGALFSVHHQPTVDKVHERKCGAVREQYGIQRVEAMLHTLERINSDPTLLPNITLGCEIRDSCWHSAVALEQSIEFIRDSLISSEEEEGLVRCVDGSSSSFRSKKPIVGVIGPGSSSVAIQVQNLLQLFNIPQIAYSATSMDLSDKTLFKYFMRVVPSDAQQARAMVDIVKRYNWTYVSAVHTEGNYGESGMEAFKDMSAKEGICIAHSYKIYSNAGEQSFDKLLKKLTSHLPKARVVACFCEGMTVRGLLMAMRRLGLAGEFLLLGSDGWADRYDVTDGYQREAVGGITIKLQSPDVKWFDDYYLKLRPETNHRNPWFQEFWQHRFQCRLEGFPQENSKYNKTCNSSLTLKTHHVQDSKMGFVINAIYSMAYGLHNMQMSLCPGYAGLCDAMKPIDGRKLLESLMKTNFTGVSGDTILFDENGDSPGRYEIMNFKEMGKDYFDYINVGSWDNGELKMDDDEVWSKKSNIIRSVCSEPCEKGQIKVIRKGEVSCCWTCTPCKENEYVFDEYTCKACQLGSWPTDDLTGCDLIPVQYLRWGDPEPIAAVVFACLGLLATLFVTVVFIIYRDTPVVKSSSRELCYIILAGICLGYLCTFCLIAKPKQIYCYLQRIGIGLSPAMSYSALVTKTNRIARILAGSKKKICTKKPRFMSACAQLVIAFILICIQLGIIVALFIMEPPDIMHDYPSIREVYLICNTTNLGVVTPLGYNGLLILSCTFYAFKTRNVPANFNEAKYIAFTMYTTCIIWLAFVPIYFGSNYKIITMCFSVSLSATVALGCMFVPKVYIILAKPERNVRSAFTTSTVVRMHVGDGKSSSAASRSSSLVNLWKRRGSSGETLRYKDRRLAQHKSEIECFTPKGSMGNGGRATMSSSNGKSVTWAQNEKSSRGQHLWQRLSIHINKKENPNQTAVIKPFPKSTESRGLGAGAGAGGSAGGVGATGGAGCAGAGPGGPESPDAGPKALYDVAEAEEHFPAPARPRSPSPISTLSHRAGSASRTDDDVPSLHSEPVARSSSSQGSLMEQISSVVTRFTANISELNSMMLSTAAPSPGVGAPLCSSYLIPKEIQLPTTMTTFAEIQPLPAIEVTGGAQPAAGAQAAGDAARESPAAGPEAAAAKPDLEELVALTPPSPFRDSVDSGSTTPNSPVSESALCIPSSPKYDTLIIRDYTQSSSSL

Question: Which EC50 [1] does the source give for COCCN1CCn2c(nc3cc(C#Cc4cccc(F)c4)ccc3c2=O)C1 [Example 5.9, 9-((3-fluorophenyl)ethynyl)-2-(2-methoxyethyl)-3,4-dihydro-1H-pyrazino[2,1-b]quinazolin-6(2H)-one] here?
Answer: Its EC50 is 100 to 300 nM.

Question: With O=c1c2ccc(C#Cc3ccccn3)cc2nc2n1CCCCC2 [Example 6.5, 3-(pyridin-2-ylethynyl)-7,8,9,10-tetrahydroazepino[2,1-b]quinazolin-12(6H)-one] as the molecule, how does the EC50 [1] read?
Answer: The EC50 was less than 10 nM.

Question: Which EC50 [1] does the source give for COC1CCc2nc3cc(C#Cc4cccc(F)c4)ccc3c(=O)n2CC1 (stereo not shown) [Example 6.18, 3-((3-fluorophenyl)ethynyl)-8-methoxy-7,8,9,10-tetrahydroazepino[2,1-b]quinazolin-12(6H)-one] here?
Answer: Its EC50 is less than 10 nM.

Question: CC(C)CC1CCCCc2nc3cc(C#Cc4ccc(F)cc4)ccc3c(=O)n21 (stereo not shown) [Example 6.32, 3-((4-fluorophenyl)ethynyl)-10-isobutyl-7,8,9,10-tetrahydroazepino[2,1-b]quinazolin-12(6H)-one] was tested. Which EC50 [1] did it give?
Answer: The EC50 was 100 to 300 nM.

Question: O=C1CCc2nc3cc(C#Cc4cccc(F)c4)ccc3c(=O)n2C1 [Example 4.22, 3-((3-fluorophenyl)ethynyl)-6H-pyrido[2,1-b]quinazoline-8,11(7H,9H)-dione] was tested. Which EC50 [1] did it give?
Answer: The EC50 was 30 to 100 nM.

Question: O=c1c2ccc(C#Cc3ccccn3)cc2nc2n1CC(CO)CC2 (stereo not shown) [Example 4.32, 8-(hydroxymethyl)-3-(pyridin-2-ylethynyl)-8,9-dihydro-6H-pyrido[2,1-b]quinazolin-11(7H)-one] was tested. Which EC50 [1] did it give?
Answer: The EC50 was 100 to 300 nM.

Question: O=c1c2ccc(C#Cc3ccc(F)cc3)cc2ncn1CC1CC1 [Example 1.9, 3-(cyclopropylmethyl)-7-((4-fluorophenyl)ethynyl)quinazolin-4(3H)-one] was tested. Which EC50 [1] did it give?
Answer: Its EC50 is 100 to 300 nM.

Question: O=c1c2ccc(C#Cc3ccccn3)cc2nc2n1C1CCC2CC1 [Example 4.48, 3-(pyridin-2-ylethynyl)-8,9-dihydro-6H-6,9-ethanopyrido[2,1-b]quinazolin-11(7H)-one] was tested. Which EC50 [1] did it give?
Answer: Its EC50 is less than 10 nM.

Question: With O=c1c2ccc(C#Cc3ccc(Cl)cc3)cc2nc2n1CCC1(CC2)OCCO1 [Example 7.09] as the molecule, how does the EC50 [1] read?
Answer: The EC50 was 300 to 1000 nM.

Question: COC1CCc2nc3cc(C#Cc4cccc(F)c4)ccc3c(=O)n2C1 (stereo not shown) [Example 4.25, 3-((3-fluorophenyl)ethynyl)-8-methoxy-8,9-dihydro-6H-pyrido[2,1-b]quinazolin-11(7H)-one] was tested. Which EC50 [1] did it give?
Answer: The EC50 was less than 10 nM.

Question: With CN1CCn2c(nc3cc(C#Cc4ccc(F)cc4)ccc3c2=O)C1 [Example 5.3, 9-((4-fluorophenyl)ethynyl)-2-methyl-3,4-dihydro-1H-pyrazino[2,1-b]quinazolin-6(2H)-one] as the molecule, how does the EC50 [1] read?
Answer: The EC50 was 10 to 30 nM.

Question: How did the EC50 [1] turn out when O=c1c2c(nc3cc(C#Cc4ccccc4)ccn13)CCCCCC2 [Example 17.1, 3-(phenylethynyl)-8,9,10,11-tetrahydro-6H-cycloocta[d]pyrido[1,2-a]pyrimidin-12(7H)-one] was run?
Answer: Its EC50 is less than 10 nM.

Question: How did the EC50 [1] turn out when COCCc1cnc2cc(C#Cc3cccc(F)c3)ccn2c1=O [Example 13.10, 8-((3-fluorophenyl)ethynyl)-3-(2-methoxyethyl)-4H-pyrido[1,2-a]pyrimidin-4-one] was run?
Answer: The EC50 was 10 to 30 nM.

Question: Which EC50 [1] does the source give for CCN1CCc2nc3cc(C#Cc4ccc(F)cc4)ccc3c(=O)n2CC1 [Example 8.2, 3-ethyl-8-((4-fluorophenyl)ethynyl)-2,3,4,5-tetrahydro-[1,4]diazepino[7,1-b]quinazolin-11(1H)-one] here?
Answer: The EC50 was 100 to 300 nM.

Question: With C#CCN1CCc2nc3cc(C#Cc4ccccn4)ccc3c(=O)n2CC1 [Example 8.22, 3-(prop-2-yn-1-yl)-8-(pyridin-2-ylethynyl)-2,3,4,5-tetrahydro-[1,4]diazepino[7,1-b]quinazolin-11(1H)-one] as the molecule, how does the EC50 [1] read?
Answer: Its EC50 is 30 to 100 nM.

Question: Which EC50 [1] does the source give for CC1Cc2nc3cc(C#Cc4ccccn4)ccc3c(=O)n2CCN1C (stereo not shown) [Example 8.28, 3,4-dimethyl-8-(pyridin-2-ylethynyl)-2,3,4,5-tetrahydro-[1,4]diazepino[7,1-b]quinazolin-11(1H)-one] here?
Answer: The EC50 was 300 to 1000 nM.

Question: For CC1(C)Cn2c(nc3cc(C#Cc4ccccn4)ccc3c2=O)CN1 [Example 5.17, 3,3-dimethyl-9-(pyridin-2-ylethynyl)-3,4-dihydro-1H-pyrazino[2,1-b]quinazolin-6(2H)-one], which EC50 [1] is on record?
Answer: The EC50 was 100 to 300 nM.

Question: Which EC50 [1] does the source give for CC1(C)CCn2c(nc3nc(C#Cc4ccccn4)ccc3c2=O)C1 [Example 12.2, 9,9-dimethyl-2-(pyridin-2-ylethynyl)-7,8,9,10-tetrahydro-5H-dipyrido[1,2-a:2′,3′-d]pyrimidin-5-one] here?
Answer: The EC50 was 30 to 100 nM.

Question: Cc1cc(C#Cc2ccc3c(=O)n4c(nc3c2)CCC2(CC4)OCCO2)ccn1 [Example 7.47] was tested. Which EC50 [1] did it give?
Answer: The EC50 was 10 to 30 nM.

Question: With O=c1c2ccc(C#Cc3cccnc3F)cc2nc2n1CCC1(CC2)OCCO1 [Example 7.14] as the molecule, how does the EC50 [1] read?
Answer: Its EC50 is 100 to 300 nM.

Question: How did the EC50 (mGluR5 PAM EC50, HEK293/GLAST cells expressing recombinant human mGluR5) turn out when CC1(C)CCc2nc3cc(C#Cc4ccccn4)ccc3c(=O)n2CC1 [Example 6.40, 8,8-dimethyl-3-(pyridin-2-ylethynyl)-7,8,9,10-tetrahydroazepino[2,1-b]quinazolin-12(6H)-one] was run?
Answer: The EC50 was less than 10 nM.

Question: With O=c1c2ccc(C#Cc3cccc(F)c3)cc2ncn1C1CCCC1 [Example 1.11, 3-cyclopentyl-7-((3-fluorophenyl)ethynyl)quinazolin-4(3H)-one] as the molecule, how does the EC50 [1] read?
Answer: Its EC50 is 10 to 30 nM.

Question: How did the EC50 [1] turn out when CCCN1CCc2nc3cc(C#Cc4cccc(F)c4)ccc3c(=O)n2CC1 [Example 8.8, 8-((3-fluorophenyl)ethynyl)-3-propyl-2,3,4,5-tetrahydro-[1,4]diazepino[7,1-b]quinazolin-11(1H)-one] was run?
Answer: Its EC50 is 100 to 300 nM.

Question: How did the EC50 [1] turn out when O=c1c2ccc(C#Cc3ccccn3)cc2nc2n1CC(F)(F)CC2 [Example 4.42, 8,8-difluoro-3-(pyridin-2-ylethynyl)-8,9-dihydro-6H-pyrido[2,1-b]quinazolin-11(7H)-one] was run?
Answer: The EC50 was 10 to 30 nM.

Question: Which EC50 [1] does the source give for Cc1cnc(NC(=O)c2ccc3c(=O)n4c(nc3c2)CCC(C)CC4)s1 (stereo not shown) [Example 23.1, 8-methyl-N-(5-methylthiazol-2-yl)-12-oxo-6,7,8,9,10,12-hexahydroazepino[2,1-b]quinazoline-3-carboxamide] here?
Answer: Its EC50 is 100 to 300 nM.

Question: Which EC50 [1] does the source give for CCCC1CCc2nc3cc(C#Cc4ccc(F)cc4)ccc3c(=O)n2CC1 (stereo not shown) [Example 6.13, 3-((4-fluorophenyl)ethynyl)-8-propyl-7,8,9,10-tetrahydroazepino[2,1-b]quinazolin-12(6H)-one] here?
Answer: Its EC50 is 30 to 100 nM.

Question: With CC(C)N(C)C(C)c1nc2cc(C#Cc3ccccn3)ccc2c(=O)n1C (stereo not shown) [Example 2.22, 2-(1-(isopropyl(methyl)amino)ethyl)-3-methyl-7-(pyridin-2-ylethynyl)quinazolin-4(3H)-one] as the molecule, how does the EC50 [1] read?
Answer: The EC50 was 300 to 1000 nM.

Question: How did the EC50 [1] turn out when O=c1c2ccc(C#Cc3ccccn3)nc2nc2n1CCCCC2 [Example 12.5, 2-(pyridin-2-ylethynyl)-8,9,10,11-tetrahydropyrido[2′,3′:4,5]pyrimido[1,2-a]azepin-5(7H)-one] was run?
Answer: The EC50 was 300 to 1000 nM.

Question: Which EC50 [1] does the source give for COCC1CCc2nc3cc(C#Cc4ccccn4)ccc3c(=O)n2C1 (stereo not shown) [Example 4.34, 8-(methoxymethyl)-3-(pyridin-2-ylethynyl)-8,9-dihydro-6H-pyrido[2,1-b]quinazolin-11(7H)-one] here?
Answer: The EC50 was 10 to 30 nM.

Question: With CN1CCCc2nc3cc(C#Cc4cccc(F)c4)ccc3c(=O)n2CC1 [Example 10.4, 9-((3-fluorophenyl)ethynyl)-3-methyl-3,4,5,6-tetrahydro-1H-[1,4]diazocino[8,1-b]quinazolin-12(2H)-one] as the molecule, how does the EC50 [1] read?
Answer: Its EC50 is 30 to 100 nM.

Question: O=c1c2ccc(C#Cc3cccnc3)cc2nc2n1CCC(O)CC2 (stereo not shown) [Example 6.17, 8-hydroxy-3-(pyridin-3-ylethynyl)-7,8,9,10-tetrahydroazepino[2,1-b]quinazolin-12(6H)-one] was tested. Which EC50 [1] did it give?
Answer: The EC50 was 100 to 300 nM.
